Assay results reported in patent US20260274895A1, “DE NOVO DESIGNED MEMBRANE-TRAVERSING AND ORALLY BIOAVAILABLE MACROCYCLES” (UNIVERSITY OF WASHINGTON, priority 2022, published 2026).
Like-named read-outs stand apart in the source and are kept apart here. Where a SMILES comes first, the peptide text is derived from it. [ ]: non-standard residue; d: D form. dNMeI = CC[C@@H](C)[C@@H](NC)C(=O)O; NMeL = CN[C@@H](CC(C)C)C(=O)O

Assays:
[1] = mouse, in vivo, iv
[2] = PAMPA
[3] = in vivo; conditions: male, Swiss Albino, mouse; for level at 0.08 h / level at 0.25 h / level at 0.5 h / level at 1 h / level at 3 h / level at 5 h / level at 8 h / level at 24 h: Plasma concentration
[4] = mouse, in vivo

CC[C@@H](C)[C@H]1NC(=O)[C@H]([C@@H](C)CC)NC(=O)[C@H](CC(C)C)N(C)C(=O)[C@H]2CCCN2C(=O)[C@@H]([C@H](C)CC)NC(=O)[C@@H]([C@H](C)CC)N(C)C(=O)[C@H](CC(C)C)NC(=O)[C@H]2CCCN2C(=O)[C@@H]2CCCN2C(=O)[C@H](C(C)C)NC(=O)[C@H]2CCCN2C1=O [Design D11.3, VPpL*iip*LIip] (cyclo(I[dI][dP]VP[dP]L[dNMeI][dI][dP][NMeL]))
half-life [1]: 5.58 h
PAMPA_Papp_Avg (apparent permeability) [2]: 1.48 ×10⁻⁶ cm/s
level at 0.08 h ([3]; iv, 1 mg/kg): 3750 ng/mL
level at 0.25 h ([3]; iv, 1 mg/kg): 3350 ng/mL
level at 0.5 h ([3]; iv, 1 mg/kg): 2010 ng/mL
level at 1 h ([3]; iv, 1 mg/kg): 1140 ng/mL
level at 3 h ([3]; iv, 1 mg/kg): 512 ng/mL
level at 5 h ([3]; iv, 1 mg/kg): 267 ng/mL
level at 8 h ([3]; iv, 1 mg/kg): 235 ng/mL
level at 24 h ([3]; iv, 1 mg/kg): 27.6 ng/mL
level at 0.08 h ([3]; po, 10 mg/kg): 69.6 ng/mL
level at 0.25 h ([3]; po, 10 mg/kg): 750 ng/mL
level at 0.5 h ([3]; po, 10 mg/kg): 2520 ng/mL
level at 1 h ([3]; po, 10 mg/kg): 2960 ng/mL
level at 3 h ([3]; po, 10 mg/kg): 3500 ng/mL
level at 5 h ([3]; po, 10 mg/kg): 2540 ng/mL
level at 8 h ([3]; po, 10 mg/kg): 1480 ng/mL
level at 24 h ([3]; po, 10 mg/kg): 95 ng/mL
bioavailability ([3]; sc, 5 mg/kg): 8.48%
level at 0.08 h ([3]; sc, 5 mg/kg): 12.4 ng/mL
level at 1 h ([3]; sc, 5 mg/kg): 44.1 ng/mL
level at 3 h ([3]; sc, 5 mg/kg): 128 ng/mL
level at 5 h ([3]; sc, 5 mg/kg): 148 ng/mL
level at 8 h ([3]; sc, 5 mg/kg): 114 ng/mL
level at 24 h ([3]; sc, 5 mg/kg): 57.6 ng/mL
F ([4]; 10 mg/kg): 40.06%
AUC0-inf ([4]; iv, 1 mg/kg): 7187.15 ng·h/mL
AUC0-last ([4]; iv, 1 mg/kg): 6965.11 ng·h/mL
AUCExtra ([4]; iv, 1 mg/kg): 3.09%
C0 ([4]; iv, 1 mg/kg): 3957.56 ng/mL
Cl ([4]; iv, 1 mg/kg): 2.32 mL/min/kg
MRT0-last ([4]; iv, 1 mg/kg): 4.64 h
T½ ([4]; iv, 1 mg/kg): 5.58 h
Vd ([4]; iv, 1 mg/kg): 1.12 L/kg
AUC0-inf ([4]; po, 10 mg/kg): 28793.58 ng·h/mL
AUC0-last ([4]; po, 10 mg/kg): 28242.38 ng·h/mL
AUCExtra ([4]; po, 10 mg/kg): 1.91%
MRT0-last ([4]; po, 10 mg/kg): 6.32 h
AUC0-inf ([4]; sc, 5 mg/kg): 3047.15 ng·h/mL
AUC0-last ([4]; sc, 5 mg/kg): 2122.81 ng·h/mL
AUCExtra ([4]; sc, 5 mg/kg): 30.33%
MRT0-last ([4]; sc, 5 mg/kg): 10.71 h
